This is an account of results in PMC11385386 (Nature Communications, 2024).

pKd: −log10 of the molar value.

The assay has as its target IDH1^R132H (Homo sapiens, UniProt O75874, R132H). Briefly: Affinity of IDH1 R132H for NADPH. Type of assay: binding.

Chain of IDH1^R132H (O75874 whole entry R132H): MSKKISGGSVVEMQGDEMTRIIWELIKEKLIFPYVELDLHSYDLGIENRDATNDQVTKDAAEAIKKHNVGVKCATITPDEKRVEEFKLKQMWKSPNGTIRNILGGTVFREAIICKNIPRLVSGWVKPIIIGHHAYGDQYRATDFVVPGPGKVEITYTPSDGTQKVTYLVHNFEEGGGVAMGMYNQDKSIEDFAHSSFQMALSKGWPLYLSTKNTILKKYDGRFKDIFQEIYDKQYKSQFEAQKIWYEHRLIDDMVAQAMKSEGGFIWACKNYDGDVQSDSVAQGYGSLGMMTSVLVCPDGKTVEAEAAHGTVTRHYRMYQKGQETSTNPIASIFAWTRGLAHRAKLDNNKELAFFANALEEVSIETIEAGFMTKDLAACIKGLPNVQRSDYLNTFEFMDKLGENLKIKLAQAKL

In turn, `NC(=O)C1=CN([C@@H]2O[C@H](COP(=O)(O)OP(=O)(O)OC[C@H]3O[C@@H](n4cnc5c(N)ncnc54)[C@H](OP(=O)(O)O)[C@@H]3O)[C@@H](O)[C@H]2O)C=CC1` [NADPH] had a pKd of about 7.30.

A word on the pKd: it is −log10 of the Kd, conventionally taken in molar units. Read a low pKd as a high Kd.
